In publication PMC3349777 (2012):

How the values were obtained:
[1] = target: Trypanosoma cruzi squalene synthase (TcSQS) (Trypanosoma cruzi, UniProt Q4CWB4); experiment: enzyme inhibition assay, recombinant SQS; assay type: biochemical
[2] = target: T1, human squalene synthase (HsSQS) (Homo sapiens, UniProt P37268); experiment: enzyme inhibition assay, recombinant SQS; assay type: biochemical
T1 sequence (P37268 1-417): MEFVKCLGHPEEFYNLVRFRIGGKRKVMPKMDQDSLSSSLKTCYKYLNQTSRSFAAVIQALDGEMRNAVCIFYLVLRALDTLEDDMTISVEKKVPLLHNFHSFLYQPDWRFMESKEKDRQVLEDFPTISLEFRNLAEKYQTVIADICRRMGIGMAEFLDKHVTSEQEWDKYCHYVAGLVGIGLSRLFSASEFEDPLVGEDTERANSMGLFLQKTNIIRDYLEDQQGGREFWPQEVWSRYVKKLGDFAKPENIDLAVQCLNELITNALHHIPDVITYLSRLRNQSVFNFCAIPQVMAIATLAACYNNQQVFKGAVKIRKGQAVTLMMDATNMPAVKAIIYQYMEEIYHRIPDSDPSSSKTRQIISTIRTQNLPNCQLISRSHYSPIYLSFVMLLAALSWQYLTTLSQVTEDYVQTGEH

## CC(C)=CCC/C(C)=C\CNCCNC1C2CC3CC(C2)CC1C3 (centres unmarked) [compound 3, SQ-109]
[1]
  Ki: 1.2 µM
[2]
  Ki: 0.74 µM
